{"source": "ChEMBL document CHEMBL1159272", "about": "“Antimicrobial metabolites from a bacterial symbiont” (1995)", "assay_type_in_all_cases": "functional", "key": {"Aspergillus fumigatus": {"system": "Aspergillus fumigatus", "assay": "Antifungal activity against Aspergillus fumigatus ATCC 13073 after 24 hrs by serial dilution method", "conditions": "ATCC 13073, 24 h"}, "Globisporangium ultimum": {"system": "Globisporangium ultimum", "assay": "Antifungal activity against Pythium ultimum after 24 hrs by serial dilution method"}, "Cryptococcus neoformans": {"system": "Cryptococcus neoformans", "assay": "Antifungal activity against Cryptococcus neoformans ATCC 14117 after 24 hrs by serial dilution method", "conditions": "ATCC 14117, 24 h"}, "Botrytis cinerea": {"system": "Botrytis cinerea", "assay": "Antifungal activity against Botrytis cinerea after 48 hrs by serial dilution method"}, "Candida tropicalis": {"system": "Candida tropicalis", "assay": "Antifungal activity against Candida tropicalis CBS94 after 24 hrs by serial dilution method"}, "Aspergillus flavus": {"system": "Aspergillus flavus", "assay": "Antifungal activity against Aspergillus flavus ATCC 24133 after 24 hrs by serial dilution method", "conditions": "ATCC 24133, 24 h"}, "Phytophthora infestans": {"system": "Phytophthora infestans", "assay": "Antifungal activity against Phytophthora infestans after 96 hrs by serial dilution method"}}}
{"smiles": "CCC(C)C(=O)C(O)Cc1c[nH]c2ccccc12", "note": "(stereo unspecified)", "values": [{"measurement": "MIC", "setting": "Aspergillus fumigatus", "result": "> 100", "unit": "µg/mL"}, {"measurement": "MIC", "setting": "Globisporangium ultimum", "result": "> 100", "unit": "µg/mL"}, {"measurement": "MIC", "setting": "Cryptococcus neoformans", "result": "> 100", "unit": "µg/mL"}, {"measurement": "MIC", "setting": "Botrytis cinerea", "result": 12, "unit": "µg/mL"}, {"measurement": "MIC", "setting": "Candida tropicalis", "result": "> 100", "unit": "µg/mL"}, {"measurement": "MIC", "setting": "Aspergillus flavus", "result": "> 100", "unit": "µg/mL"}, {"measurement": "MIC", "setting": "Phytophthora infestans", "result": 100, "unit": "µg/mL"}]}
{"smiles": "CC(C)C(=O)C(O)Cc1c[nH]c2ccccc12", "note": "(stereo unspecified)", "values": [{"measurement": "MIC", "setting": "Aspergillus fumigatus", "result": "> 100", "unit": "µg/mL"}, {"measurement": "MIC", "setting": "Globisporangium ultimum", "result": "> 100", "unit": "µg/mL"}, {"measurement": "MIC", "setting": "Cryptococcus neoformans", "result": "> 100", "unit": "µg/mL"}, {"measurement": "MIC", "setting": "Botrytis cinerea", "result": 12, "unit": "µg/mL"}, {"measurement": "MIC", "setting": "Candida tropicalis", "result": "> 100", "unit": "µg/mL"}, {"measurement": "MIC", "setting": "Aspergillus flavus", "result": "> 100", "unit": "µg/mL"}, {"measurement": "MIC", "setting": "Phytophthora infestans", "result": 50, "unit": "µg/mL"}]}
{"smiles": "CCC(C)C(=O)C(Cc1c[nH]c2ccccc12)OC(C)=O", "note": "(stereo unspecified)", "values": [{"measurement": "MIC", "setting": "Aspergillus fumigatus", "result": "> 100", "unit": "µg/mL"}, {"measurement": "MIC", "setting": "Globisporangium ultimum", "result": "> 100", "unit": "µg/mL"}, {"measurement": "MIC", "setting": "Cryptococcus neoformans", "result": 50, "unit": "µg/mL"}, {"measurement": "MIC", "setting": "Botrytis cinerea", "result": "> 100", "unit": "µg/mL"}, {"measurement": "MIC", "setting": "Candida tropicalis", "result": "> 100", "unit": "µg/mL"}, {"measurement": "MIC", "setting": "Aspergillus flavus", "result": "> 100", "unit": "µg/mL"}, {"measurement": "MIC", "setting": "Phytophthora infestans", "result": 100, "unit": "µg/mL"}]}
{"smiles": "CC(=O)OC(Cc1c[nH]c2ccccc12)C(=O)C(C)C", "note": "(stereo unspecified)", "values": [{"measurement": "MIC", "setting": "Aspergillus fumigatus", "result": "> 100", "unit": "µg/mL"}, {"measurement": "MIC", "setting": "Cryptococcus neoformans", "result": 25, "unit": "µg/mL"}, {"measurement": "MIC", "setting": "Botrytis cinerea", "result": "> 100", "unit": "µg/mL"}, {"measurement": "MIC", "setting": "Candida tropicalis", "result": "> 100", "unit": "µg/mL"}, {"measurement": "MIC", "setting": "Aspergillus flavus", "result": "> 100", "unit": "µg/mL"}]}
